Measurements from US12263171B2, “7-, 8-, and 10-substituted amino triazolo quinazoline derivatives as adenosine receptor antagonists, pharmaceutical compositions and their use” (Merck Sharp & Dohme LLC, priority 2018, dated 2025).

How the values were obtained:
[1] = biological target: human A2b adenosine receptor (Homo sapiens (Human), UniProt P29275); experiment: A2b radioligand filtration binding assay (tritiated proprietary A2b antagonist, HEK293 membranes); conditions: unstarred values: radioligand binding
Outline: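 Displacement of a tritiated proprietary A2b antagonist from membranes of HEK293 cells recombinantly expressing human A2b receptor, measured by filtration and scintillation counting. Percent effect was normalized to total and non-specific binding and fitted with a 4-parameter logistic to give IC50.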

[2] = biological target: human A2a adenosine receptor (Homo sapiens (Human), UniProt P29274); experiment: A2a receptor affinity radioligand binding assay ([3H] SCH58261, membranes from HEK293 or CHO cells); conditions: unstarred values: radioligand binding
Outline: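 Displacement of tritiated SCH58261 (working dilution 4 nM) from recombinant human A2a receptor membranes (HEK293 or CHO), 60 min at room temperature in Tris pH 7.4/MgCl2 buffer after 15–30 min compound preincubation. Scintillation counting after filtration; normalized percent effect fitted 4-parameter logistic for IC50.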

Sequence of human A2a adenosine receptor (P29274 whole entry): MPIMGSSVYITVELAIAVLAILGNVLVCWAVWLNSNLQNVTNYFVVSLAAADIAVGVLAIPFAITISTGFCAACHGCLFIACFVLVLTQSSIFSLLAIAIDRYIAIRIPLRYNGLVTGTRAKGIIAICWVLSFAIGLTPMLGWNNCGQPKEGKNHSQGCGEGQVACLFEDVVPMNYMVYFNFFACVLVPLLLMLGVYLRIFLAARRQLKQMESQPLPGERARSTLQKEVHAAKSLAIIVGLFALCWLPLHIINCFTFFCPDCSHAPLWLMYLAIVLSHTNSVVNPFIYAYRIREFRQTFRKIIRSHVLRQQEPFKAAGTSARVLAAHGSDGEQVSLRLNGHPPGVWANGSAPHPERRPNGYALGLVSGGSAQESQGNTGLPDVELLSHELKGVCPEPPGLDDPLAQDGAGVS
Sequence of human A2b adenosine receptor (P29275 whole entry): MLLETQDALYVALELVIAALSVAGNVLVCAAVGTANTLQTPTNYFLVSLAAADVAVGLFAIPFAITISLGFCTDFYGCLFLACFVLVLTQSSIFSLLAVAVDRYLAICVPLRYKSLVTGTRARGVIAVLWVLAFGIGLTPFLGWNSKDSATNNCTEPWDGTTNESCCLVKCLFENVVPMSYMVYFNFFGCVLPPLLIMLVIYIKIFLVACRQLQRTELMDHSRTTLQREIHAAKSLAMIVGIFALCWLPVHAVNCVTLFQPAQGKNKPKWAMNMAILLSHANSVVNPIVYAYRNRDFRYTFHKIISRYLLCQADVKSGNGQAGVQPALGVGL

| Compound | IC50 [1] [nM] | IC50 [2] [nM] |
| --- | --- | --- |
| COc1cccc2c1nc(N)n1nc([C@@H]3CCCN(c4cnn(C5CCCC5OC)c4)C3)nc21 (stereo partly drawn) [Example 56, 7-methoxy-2-((3R)-1-(1-(2-methoxycyclopentyl)-1H-pyrazol-4-yl)piperidin-3-yl)-[1,2,4]triazolo[1,5-c]quinazolin-5-amine] | 175 | 0.9 |
| COc1cccc2c1nc(N)n1nc([C@@H]3CCCN(c4nn(CC(C)(C)O)cc4C(F)(F)F)C3)nc21 [Example 62, (R)-1-(3-(3-(5-amino-7-methoxy-[1,2,4]triazolo[1,5-c]quinazolin-2-yl)piperidin-1-yl)-4-(trifluoromethyl)-1H-pyrazol-1-yl)-2-methylpropan-2-ol] | 631 | 0.3 |
| COc1cccc2c1nc(N)n1nc([C@@H]3CCCN(c4ncn(CC(C)(C)O)n4)C3)nc21 [Example 64, (R)-1-(3-(3-(5-amino-7-methoxy[1,2,4]triazolo[1,5-c]quinazolin-2-yl)piperidin-1-yl)-1H-1,2,4-triazol-1-yl)-2-methylpropan-2-ol] | 374 | 0.1 |
| COc1cccc2c1nc(N)n1nc([C@@H]3CCCN(c4ncn(C5CCOCC5)n4)C3)nc21 [Example 68, (R)-7-methoxy-2-(1-(1-(tetrahydro-2H-pyran-4-yl)-1H-1,2,4-triazol-3-yl)piperidin-3-yl)-[1,2,4]triazolo[1,5-c]quinazolin-5-amine] | 340 | 0.3 |
| COc1cccc2c1nc(N)n1nc([C@@H]3CCCN(c4nnc5n4CCNC5)C3)nc21 [Example 71, (R)-7-methoxy-2-(1-(5,6,7,8-tetrahydro-[1,2,4]triazolo[4,3-a]pyrazin-3-yl)piperidin-3-yl)-[1,2,4]triazolo[1,5-c]quinazolin-5-amine] | 5610 | 0.2 |
| COc1cccc2c1nc(N)n1nc([C@@H]3CCCN(c4cn(C)cn4)C3)nc21 [Example 76, (R)-7-methoxy-2-(1-(1-methyl-1H-imidazol-4-yl)piperidin-3-yl)-[1,2,4]triazolo[1,5-c]quinazolin-5-amine] | 1780 | 3.6 |
| COc1cccc2c1nc(N)n1nc([C@@H]3CCCN(c4nccn4C)C3)nc21 [Example 81, (R)-7-methoxy-2-(1-(1-methyl-1H-imidazol-2-yl)piperidin-3-yl)-[1,2,4]triazolo[1,5-c]quinazolin-5-amine] | 813 | 1.4 |
| COc1cccc2c1nc(N)n1nc([C@@H]3CCCN(c4ccn(C)c(=O)c4)C3)nc21 [Example 87, (R)-4-(3-(5-amino-7-methoxy-[1,2,4]triazolo[1,5-c]quinazolin-2-yl)piperidin-1-yl)-1-methylpyridin-2(1H)-one] | 858 | 1.5 |
| COc1cccc2c1nc(N)n1nc([C@@H]3CCCN(c4ccc(=O)n(C)c4)C3)nc21 [Example 88, (R)-5-(3-(5-amino-7-methoxy-[1,2,4]triazolo[1,5-c]quinazolin-2-yl)piperidin-1-yl)-1-methylpyridin-2(1H)-one] | 295 | 2 |
| COc1cccc2c1nc(N)n1nc([C@@H]3CCCN(c4ccc(=O)n(C(F)F)c4)C3)nc21 [Example 92, (R)-5-(3-(5-amino-7-methoxy-[1,2,4]triazolo[1,5-c]quinazolin-2-yl)piperidin-1-yl)-1-(difluoromethyl)pyridin-2(1H)-one] | 196 | 0.7 |
| COc1cccc2c1nc(N)n1nc([C@@H]3CCCN(c4cc(C)c(=O)n(C)c4)C3)nc21 [Example 93] | 229 | 1.5 |
| COc1cccc2c1nc(N)n1nc([C@@H]3CCCN(c4ccc(=O)n(C(C)C)c4)C3)nc21 [Example 96, (R)-5-(3-(5-amino-7-methoxy-[1,2,4]triazolo[1,5-c]quinazolin-2-yl)piperidin-1-yl)-1-isopropylpyridin-2(1H)-one] | 291 | 0.6 |
| COc1cccc2c1nc(N)n1nc([C@@H]3CCCN(c4ccc(=O)n(C)n4)C3)nc21 [Example 98, (R)-6-(3-(5-amino-7-methoxy-[1,2,4]triazolo[1,5-c]quinazolin-2-yl)piperidin-1-yl)-2-methylpyridazin-3(2H)-one] | 691 | 1.4 |
| COc1cccc2c1nc(N)n1nc([C@@H]3CCCN(c4nccnc4C)C3)nc21 [Example 101, (R)-7-methox-2-(1-(3-methylpyrazin-2-yl)piperidin-3-yl)-[1,2,4]triazolo[1,5-c]quinazolin-5-amine] | 178 | 0.5 |
| COc1cccc2c1nc(N)n1nc([C@@H]3CCCN(c4cnccn4)C3)nc21 [Example 102, (R)-7-methoxy-2-(1-(pyrazin-2-yl)piperidin-3-yl)-[1,2,4]triazolo[1,5-c]quinazolin-5-amine] | 151 | 1 |
| COc1cccc2c1nc(N)n1nc([C@@H]3CCCN(c4cncc(C)n4)C3)nc21 [Example 103, (R)-7-methoxy-2-(1-(6-methylpyrazin-2-yl)piperidin-3-yl)-[1,2,4]triazolo[1,5-c]quinazolin-5-amine] | 159 | 1.2 |
| COc1cccc2c1nc(N)n1nc([C@@H]3CCCN(c4cncc(C(F)(F)F)n4)C3)nc21 [Example 104, (R)-7-methoxy-2-(1-(6-(trifluoromethyl)pyrazin-2-yl)piperidin-3-yl)-[1,2,4]triazolo[1,5-c]quinazolin-5-amine] | 3330 | 0.1 |
| COc1cccc2c1nc(N)n1nc([C@@H]3CCCN(c4cnc(C5CC5)cn4)C3)nc21 [Example 105, (R)-2-(1-(5-cyclopropylpyrazin-2-yl)piperidin-3-yl)-7-methoxy-[1,2,4]triazolo[1,5-c]quinazolin-5-amine] | 165 | 0.7 |
| COc1cccc2c1nc(N)n1nc([C@@H]3CCCN(c4cnc(C)cn4)C3)nc21 [Example 106, (R)-7-methoxy-2-(1-(5-methylpyrazin-2-yl)piperidin-3-yl)-[1,2,4]triazolo[1,5-c]quinazolin-5-amine] | 245 | 0.1 |
| COc1cccc2c1nc(N)n1nc([C@@H]3CCCN(c4ccc(C(C)C)nn4)C3)nc21 [Example 107, (R)-2-(1-(6-isopropylpyridazin-3-yl)piperidin-3-yl)-7-methoxy-[1,2,4]triazolo[1,5-c]quinazolin-5-amine] | 275 | 2.1 |

Other lines, results leading:

| IC50 [1] [nM] | IC50 [2] [nM] | Compound |
| --- | --- | --- |
| 64.9 | 0.2 | COc1cccc2c1nc(N)n1nc([C@@H]3CCCN(c4cnn(C5CCCC5O)c4)C3)nc21 (some centres unmarked) [Example 58A] |
| 144 | 0.7 | COc1cccc2c1nc(N)n1nc([C@@H]3CCCN(c4ccn(C)n4)C3)nc21 [Example 66, (R)-7-methoxy-2-(1-(1-methyl-1H-pyrazol-3-yl)piperidin-3-yl)-[1,2,4]triazolo[1,5-c]quinazolin-5-amine] |
| 2 | 1 | COc1cccc2c1nc(N)n1nc([C@@H]3CCCN(c4cn(C)nn4)C3)nc21 [Example 67, (R)-7-methoxy-2-(1-(1-methyl-1H-1,2,3-triazol-4-yl)piperidin-3-yl)-[1,2,4]triazolo[1,5-c]quinazolin-5-amine] |
| 144 | 0.6 | COc1cccc2c1nc(N)n1nc([C@@H]3CCCN(c4ncn(CC(F)(F)F)n4)C3)nc21 [Example 69, (R)-7-methoxy-2-(1-(1-(2,2,2-trifluoroethyl)-1H-1,2,4-triazol-3-yl)piperidin-3-yl)-[1,2,4]triazolo[1,5-c]quinazolin-5-amine] |
| 151 | 0.8 | COc1cccc2c1nc(N)n1nc([C@@H]3CCCN(c4nn(C)nc4C)C3)nc21 [Example 70, (R)-2-(1-(2,5-dimethyl-2H-1,2,3-triazol-4-yl)piperidin-3-yl)-7-methoxy-[1,2,4]triazolo[1,5-c]quinazolin-5-amine] |
| 119 | 0.9 | COc1cccc2c1nc(N)n1nc([C@@H]3CCCN(c4cnn(C5CCOCC5)n4)C3)nc21 [Example 72, (R)-7-methoxy-2-(1-(2-(tetrahydro-2H-pyran-4-yl)-2H-1,2,3-triazol-4-yl)piperidin-3-yl)-[1,2,4]triazolo[1,5-c]quinazolin-5-amine] |
| 1.9 | 0.8 | COc1cccc2c1nc(N)n1nc([C@@H]3CCCN(c4cn(CC(F)(F)F)nn4)C3)nc21 [Example 73, (R)-7-methoxy-2-(1-(1-(2,2,2-trifluoroethyl)-1H-1,2,3-triazol-4-yl)piperidin-3-yl)-[1,2,4]triazolo[1,5-c]quinazolin-5-amine] |
| 3.1 | 1 | COc1cccc2c1nc(N)n1nc([C@@H]3CCCN(c4cc(C)n(C)n4)C3)nc21 [Example 74, (R)-2-(1-(1,5-dimethyl-1H-pyrazol-3-yl)piperidin-3-yl)-7-methoxy-[1,2,4]triazolol[1,5-c]quinazolin-5-amine] |
| 11.6 | 1 | COc1cccc2c1nc(N)n1nc([C@@H]3CCCN(c4cnn(C)n4)C3)nc21 [Example 75, (R)-7-methoxy-2-(1-(2-methyl-2H-1,2,3-triazol-4-yl)piperidin-3-yl)-[1,2,4]triazolo[1,5-c]quinazolin-5-amine] |
| 98.4 | 0.6 | COc1cccc2c1nc(N)n1nc([C@@H]3CCCN(c4cc(C(F)(F)F)c(=O)n(C)c4)C3)nc21 [Example 99, (R)-5-(3-(5-amino-7-methoxy-[1,2,4]triazolo[1,5-c]quinazolin-2-yl)piperidin-1-yl)-1-methyl-3-(trifluoromethyl)pyridin-2(1H)-one] |
| 56.8 | 0.7 | COc1cccc2c1nc(N)n1nc([C@@H]3CCCN(c4cnc(OC(F)F)c(C)c4)C3)nc21 [Example 100, (R)-2-(1-(6-(difluoromethoxy)-5-methylpyridin-3-yl)piperidin-3-yl)-7-methoxy-[1,2,4]-triazolo[1,5-c]quinazolin-5-amine] |
